Several values for one entry are separate records, joined by “and”; a condition that tells them apart may be missing. Equal entries are not always repeated. Toxic doses and inconclusive results are not listed. Cut-off read from the data, not from the text of the source: active = T/C of 150% or more; inactive = T/C below 125%.
System: L1210 leukemia ip in BDF1 mice, survival T/C
Test: NCI In Vivo Anticancer Drug Screen. Data for tumor model L1210 Leukemia (intraperitoneal) in B6D2F1 (BDF1) mice
Conditions: endpoint: mean survival time, higher = longer survival
Procedure, shortened: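 Tumor was transplanted into mice, which were then dosed with test compound or vehicle alone. Survival was recorded for each group, and the treated figure was expressed relative to the control figure.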

[1] = dose: 100.0 mg/kg/injection, schedule: Q01DX009 (ip), vehicle: saline
[2] = dose: 200.0 mg/kg/injection, schedule: Q01DX009 (ip), vehicle: saline
[3] = dose: 400.0 mg/kg/injection, schedule: Q01DX009 (ip), vehicle: saline
[4] = dose: 100.0 mg/kg/injection, schedule: Q04DX002 (ip), vehicle: saline
[5] = dose: 200.0 mg/kg/injection, schedule: Q04DX002 (ip), vehicle: saline
[6] = dose: 400.0 mg/kg/injection, schedule: Q04DX002 (ip), vehicle: saline
[7] = dose: 10.0 mg/kg/injection, schedule: Q01DX001 (ip), vehicle: saline
[8] = dose: 100.0 mg/kg/injection, schedule: Q01DX001 (ip), vehicle: other
[9] = dose: 100.0 mg/kg/injection, schedule: Q01DX009 (ip), vehicle: saline with Tween-80
[10] = dose: 100.0 mg/kg/injection, schedule: Q04DX003 (ip), vehicle: other
[11] = dose: 200.0 mg/kg/injection, schedule: Q01DX001 (ip), vehicle: other
[12] = dose: 200.0 mg/kg/injection, schedule: Q01DX009 (ip), vehicle: saline with Tween-80
[13] = dose: 200.0 mg/kg/injection, schedule: Q04DX003 (ip), vehicle: other
[14] = dose: 400.0 mg/kg/injection, schedule: Q01DX001 (ip), vehicle: other
[15] = dose: 100.0 mg/kg/injection, schedule: Q01DX001 (ip), vehicle: saline
[16] = dose: 200.0 mg/kg/injection, schedule: Q01DX001 (ip), vehicle: saline
[17] = dose: 400.0 mg/kg/injection, schedule: Q01DX001 (ip), vehicle: saline

Measured: T/C

O=[N+]([O-])c1cc(S(=O)(=O)O)cc([N+](=O)[O-])c1NN(c1ccccc1)c1ccccc1
inactive: dose: 44.0 mg/kg/injection, schedule: Q04DX003 (ip), vehicle: other 100 % of control | dose: 87.0 mg/kg/injection, schedule: Q04DX003 (ip), vehicle: other 92 % of control | dose: 175.0 mg/kg/injection, schedule: Q04DX003 (ip), vehicle: other 103 % of control

CC(C)OC(=O)Nc1cccc(Br)c1
inactive: dose: 100.0 mg/kg/injection, schedule: Q04DX002 (ip), vehicle: Klucel (hydroxypropylcellulose) (HPC) 92 % of control | dose: 200.0 mg/kg/injection, schedule: Q04DX002 (ip), vehicle: Klucel (hydroxypropylcellulose) (HPC) 106 % of control | dose: 400.0 mg/kg/injection, schedule: Q04DX002 (ip), vehicle: Klucel (hydroxypropylcellulose) (HPC) 95 % of control

CCCCC(CC)COC(OCC(CC)CCCC)C(OCC(CC)CCCC)OCC(CC)CCCC (stereo unspecified)
inactive: [1] 101 % of control | dose: 100.0 mg/kg/injection, schedule: Q04DX003 (ip), vehicle: saline with Tween-80 98 % of control | [2] 101 % of control | dose: 200.0 mg/kg/injection, schedule: Q04DX003 (ip), vehicle: saline with Tween-80 94 % of control | [3] 113 % of control | dose: 400.0 mg/kg/injection, schedule: Q04DX003 (ip), vehicle: saline with Tween-80 91 % of control

CN(C)CCN(Cc1ccccc1)c1ccccn1
inactive: dose: 75.0 mg/kg/injection, schedule: Q01DX001 (ip), vehicle: carboxymethylcellulose (CMC) 100 % of control | dose: 150.0 mg/kg/injection, schedule: Q01DX001 (ip), vehicle: carboxymethylcellulose (CMC) 95 % of control

c1ccc(CN2CCN(CC3CC3)CC2)cc1
inactive: dose: 12.5 mg/kg/injection, schedule: Q04DX003 (ip), vehicle: Klucel (hydroxypropylcellulose) (HPC) 103 % of control | dose: 25.0 mg/kg/injection, schedule: Q04DX003 (ip), vehicle: Klucel (hydroxypropylcellulose) (HPC) 98 % of control | dose: 50.0 mg/kg/injection, schedule: Q04DX003 (ip), vehicle: Klucel (hydroxypropylcellulose) (HPC) 110 % of control

CCC12C=CCN3CCC4(C(=C(C(=O)OC)C1)Nc1cc(OC)ccc14)C32 (stereo unspecified)
inactive: [4] 110 % of control | [5] 121 % of control

CCC(CC)OCCN1CCN(CCCN2c3ccccc3Sc3ccc(C(F)(F)F)cc32)CC1
inactive: dose: 0.39 mg/kg/injection, schedule: Q01DX009 (ip), vehicle: saline with Tween-80 107 % of control | dose: 0.78 mg/kg/injection, schedule: Q01DX009 (ip), vehicle: saline with Tween-80 107 % of control | dose: 1.56 mg/kg/injection, schedule: Q01DX009 (ip), vehicle: saline with Tween-80 95 % of control | dose: 1.56 mg/kg/injection, schedule: Q04DX003 (ip), vehicle: saline with Tween-80 97 % of control | dose: 3.12 mg/kg/injection, schedule: Q04DX003 (ip), vehicle: saline with Tween-80 96 % of control | dose: 6.25 mg/kg/injection, schedule: Q04DX003 (ip), vehicle: saline with Tween-80 112 % of control | dose: 12.5 mg/kg/injection, schedule: Q04DX003 (ip), vehicle: saline with Tween-80 97 % of control

CCC#CC(=O)OCCCCC
inactive: [4] 105 % of control | [5] 102 % of control | [6] 108 % of control

C#CC(OC(=O)N(C)C)(c1ccccc1)c1ccc(F)cc1 (stereo unspecified)
inactive: dose: 5.0 mg/kg/injection, schedule: Q01DX001 (ip), vehicle: saline 108 % of control | [7] 105 % of control | dose: 20.0 mg/kg/injection, schedule: Q01DX001 (ip), vehicle: saline 109 % of control | dose: 40.0 mg/kg/injection, schedule: Q01DX001 (ip), vehicle: saline 117 % of control

CC(=O)C1(C(C)=O)C(c2cccc([N+](=O)[O-])c2)C1(c1ccccc1)[N+](=O)[O-] (stereo unspecified)
inactive: [8] 95 % of control | [9] 94 % of control | [10] 92 % of control | [11] 93 % of control | [12] 102 % of control | [13] 92 % of control | [14] 95 % of control | dose: 400.0 mg/kg/injection, schedule: Q01DX009 (ip), vehicle: saline with Tween-80 96 % of control | dose: 400.0 mg/kg/injection, schedule: Q04DX003 (ip), vehicle: other 97 % of control

Clc1ccccc1C(N1CCCCC1)C(Cl)(Cl)Cl (stereo unspecified)
inactive: [4] 92 % of control | [5] 90 % of control | [6] 92 % of control

CCCCN1CCC(N)=NC1=O
inactive: dose: 100.0 mg/kg/injection, schedule: Q01DX Z (ip), vehicle: saline 100 % of control | dose: 200.0 mg/kg/injection, schedule: Q01DX Z (ip), vehicle: saline 100 % of control

CC(=O)CCC(=O)OCCOC(=O)CCC(C)=O
inactive: [1] 98 % of control and 105 % of control | dose: 100.0 mg/kg/injection, schedule: Q04DX003 (ip), vehicle: saline 96 % of control and 104 % of control | [2] 93 % of control and 95 % of control | dose: 200.0 mg/kg/injection, schedule: Q04DX003 (ip), vehicle: saline 100 % of control | [3] 98 % of control and 104 % of control | dose: 400.0 mg/kg/injection, schedule: Q04DX003 (ip), vehicle: saline 100 % of control and 106 % of control

CC(C(=O)O)C(N)C(=O)O (stereo unspecified)
inactive: dose: 75.0 mg/kg/injection, schedule: Q04DX003 (ip), vehicle: saline 102 % of control | dose: 100.0 mg/kg/injection, schedule: Q01DX001 (ip), vehicle: Klucel (hydroxypropylcellulose) (HPC) 88 % of control | [15] 98 % of control | dose: 150.0 mg/kg/injection, schedule: Q04DX003 (ip), vehicle: saline 102 % of control | dose: 200.0 mg/kg/injection, schedule: Q01DX001 (ip), vehicle: Klucel (hydroxypropylcellulose) (HPC) 97 % of control | [16] 96 % of control | dose: 300.0 mg/kg/injection, schedule: Q04DX003 (ip), vehicle: saline 102 % of control | dose: 400.0 mg/kg/injection, schedule: Q01DX001 (ip), vehicle: Klucel (hydroxypropylcellulose) (HPC) 92 % of control | [17] 95 % of control

O=C(O)CCC(=O)c1ccc2ccccc2c1
inactive: dose: 100.0 mg/kg/injection, schedule: Q04DX003 (ip), vehicle: Klucel (hydroxypropylcellulose) (HPC) 100 % of control | dose: 200.0 mg/kg/injection, schedule: Q04DX003 (ip), vehicle: Klucel (hydroxypropylcellulose) (HPC) 91 % of control | dose: 400.0 mg/kg/injection, schedule: Q04DX003 (ip), vehicle: Klucel (hydroxypropylcellulose) (HPC) 92 % of control

CNCCNC
inactive: [15] 94 % of control | [4] 103 % of control | [16] 102 % of control | [5] 103 % of control | [17] 96 % of control | [6] 90 % of control

C=C=CC1CCCC1C (stereo unspecified)
inactive: dose: 50.0 mg/kg/injection, schedule: Q01DX009 (ip), vehicle: saline with Tween-80 110 % of control | [9] 106 % of control | [12] 92 % of control

CC(=O)OC1CC(OC2C(O)CC(OC3C(O)CC(OC4CCC5(C)C(CCC6C5CCC5(C)C(C7=CC(=O)OC7)CCC65O)C4)OC3C)OC2C)OC(C)C1OC1OC(CO)C(O)C(O)C1O (stereo unspecified)
inactive: [7] 101 % of control

O=C(OOC(=O)c1ccccc1)c1ccccc1
inactive: dose: 50.0 mg/kg/injection, schedule: Q01DX001 (ip), vehicle: other 96 % of control | [8] 94 % of control | [11] 102 % of control | [14] 102 % of control

ClC1=C(Cl)C2(Cl)C(COc3ccc(Cl)cc3)CC1(Cl)C2(Cl)Cl (stereo unspecified)
inactive: dose: 50.0 mg/kg/injection, schedule: Q01DX009 (ip), vehicle: other 91 % of control | dose: 100.0 mg/kg/injection, schedule: Q01DX009 (ip), vehicle: Klucel (hydroxypropylcellulose) (HPC) 94 % of control | [10] 109 % of control | dose: 200.0 mg/kg/injection, schedule: Q01DX009 (ip), vehicle: Klucel (hydroxypropylcellulose) (HPC) 96 % of control | [13] 104 % of control | dose: 400.0 mg/kg/injection, schedule: Q01DX009 (ip), vehicle: Klucel (hydroxypropylcellulose) (HPC) 96 % of control

O=C(C(=O)c1ccc(O)cc1O)c1ccc(O)cc1O
inactive: [15] 97 % of control | [16] 97 % of control | [17] 97 % of control

Cn1ncc2ccccc21
inactive: dose: 62.5 mg/kg/injection, schedule: Q01DX009 (ip), vehicle: other 101 % of control | dose: 125.0 mg/kg/injection, schedule: Q01DX009 (ip), vehicle: other 102 % of control | dose: 250.0 mg/kg/injection, schedule: Q01DX009 (ip), vehicle: other 93 % of control

Reference: PubChem BioAssay AID248 (DTP/NCI, 2004)
